The subject of this assay is endogenous cellular STAT1 (phosphorylated at Tyr701) in NCI-H1373 cells. As to the kind of experiment: Phospho-STAT1 (Tyr701) LANCE Ultra TR-FRET Detection Assay. It is filed as cell-based. The note with it: Homo sapiens, NCI-H1373, 48 h, phospho-STAT1 (Tyr701) induction, read-out: NH1373 pSTAT1 EC50. Background: In TR-FRET formats the signal depends on donor and acceptor labels being close together.

As a reminder, the EC50 is the midpoint of the concentration-response curve. Take `COc1cnc(-c2cc3ccn(C/C=C/[C@H](C)Nc4cn[nH]c(=O)c4C(F)(F)F)c(=O)c3cc2F)nc1N` [Example 134, (S,E)-6-(4-amino-5-methoxypyrimidin-2-yl)-7-fluoro-2-(4-((6-oxo-5-(trifluoromethyl)-1,6-dihydropyridazin-4-yl)amino)pent-2-en-1-yl)isoquinolin-1(2H)-one]: the EC50 is 5.19 nM.

In the case of `O=c1[nH]ncc(N[C@H]2CCN[C@@H]2CCn2ccc3cc(-c4ncc(C(F)(F)F)cn4)c(F)cc3c2=O)c1C(F)(F)F` [Example 440, 7-fluoro-2-(2-((2R,3S)-3-((6-oxo-5-(trifluoromethyl)-1,6-dihydropyridazin-4-yl)amino)pyrrolidin-2-yl)ethyl)-6-(5-(trifluoromethyl)pyrimidin-2-yl)isoquinolin-1(2H)-one], the 50% effective concentration (EC50) is 1750 nM. The same measure for `CNc1nc(-c2cc3ccn(CCC[C@H](C)Nc4cn[nH]c(=O)c4C(F)(F)F)c(=O)c3cc2F)ncc1C(F)(F)F` [Example 106, 7-fluoro-6-[4-(methylamino)-5-(trifluoromethyl)pyrimidin-2-yl]-2-[(4S)-4-[[6-oxo-5-(trifluoromethyl)-1H-pyridazin-4-yl]amino]pentyl]isoquinolin-1-one]: 2.31 nM. The same measure for `C[C@@H](CCCn1ccc2cc(-c3ncc(N)cn3)c(F)cc2c1=O)Nc1cn[nH]c(=O)c1C(F)(F)F` [Example 199, (S)-6-(5-aminopyrimidin-2-yl)-7-fluoro-2-(4-((6-oxo-5-(trifluoromethyl)-1,6-dihydropyridazin-4-yl)amino)pentyl)isoquinolin-1(2H)-one]: 317 nM; for `Nc1nc(-c2cc3ccn(C[C@@H]4CCC[C@H](Nc5cn[nH]c(=O)c5C(F)(F)F)C4)c(=O)c3cc2F)nc(C2CC2)c1Cl` [Example 282, 6-(4-amino-5-chloro-6-cyclopropylpyrimidin-2-yl)-7-fluoro-2-(((1R,3S)-3-((6-oxo-5-(trifluoromethyl)-1,6-dihydropyridazin-4-yl)amino)cyclohexyl)methyl)isoquinolin-1(2H)-one]: 80.1 nM. With `Cc1nnc([C@@H](CCCn2ccc3cc(-c4ncc(C(F)(F)F)cn4)c(F)cc3c2=O)Nc2cn[nH]c(=O)c2C(F)(F)F)o1` [Example 169, 7-fluoro-2-[(4R)-4-(5-methyl-1,3,4-oxadiazol-2-yl)-4-[[6-oxo-5-(trifluoromethyl)-1H-pyridazin-4-yl]amino]butyl]-6-[5-(trifluoromethyl)pyrimidin-2-yl]isoquinolin-1-one] the figure was 61.9 nM; with `Nc1nc(-c2cc3ccn(C[C@@H]4CCC[C@H](Nc5cn[nH]c(=O)c5C(F)(F)F)C4)c(=O)c3c(F)c2F)ccc1C(F)(F)F` [Example 252, 6-(6-amino-5-(trifluoromethyl)pyridin-2-yl)-7,8-difluoro-2-(((1R,3S)-3-((6-oxo-5-(trifluoromethyl)-1,6-dihydropyridazin-4-yl)amino)cyclohexyl)methyl)isoquinolin-1(2H)-one], 16.2 nM. Consider `O=c1[nH]ncc(N[C@H]2CCC[C@@H](Cn3ccc4cc(-c5cnc(C6CC6)cn5)c(F)cc4c3=O)C2)c1C(F)(F)F` [Example 270, 6-(5-cyclopropylpyrazin-2-yl)-7-fluoro-2-(((1R,3S)-3-((6-oxo-5-(trifluoromethyl)-1,6-dihydropyridazin-4-yl)amino)cyclohexyl)methyl)isoquinolin-1(2H)-one], for which the half-maximal effective concentration (EC50) came to 149 nM. The same measure for `[2H][C@](C)(CCCn1ccc2cc(-c3ncc(C(F)(F)F)cn3)c(F)c(F)c2c1=O)Nc1cn[nH]c(=O)c1C(F)(F)F` (single isomer, unassigned) [Example 87]: 10000 nM; for `COc1cnc(-c2cc3ccn(C[C@@H]4CCC[C@H](Nc5cn[nH]c(=O)c5C(F)(F)F)C4)c(=O)c3cc2F)nc1N` [Example 255, 6-(4-amino-5-methoxypyrimidin-2-yl)-7-fluoro-2-(((1R,3S)-3-((6-oxo-5-(trifluoromethyl)-1,6-dihydropyridazin-4-yl)amino)cyclohexyl)methyl)isoquinolin-1(2H)-one]: 9.1 nM.
